Columns and labels:
[1] = tested on: ACC1; assay: ACC radioactive enzyme assay (14C carbonate) from yeast cell lysates; type: biochemical, S. cerevisiae; details: strains of Table 13, FIG. 2
Text: The most commonly used in vitro ACC assay is based on the usage of radioactive ^14C carbonate. The incorporation of radioactive carbonate into an acid and a non-volatile material (i.e. malonyl-CoA) is followed. The ^14C-labelled sodium bicarbonate which has not been converted to malonyl-CoA is removed by an acid and heat treatment which converts the remaining NaH14CO3 and the possible side products of the reaction into ^14C-labelled CO2.
This assay described by Diacovich et al. (2002, J. Biol. Chem. 277:31228-31236) has been used to detect ACC activity from yeast lysates (Shi et al. 2014, mBIO 5:3 e01130-14) with slight modifications. The cell lysates were prepared from yeast cells harvested during late exponential or stationary phase. The cells were washed and then resuspended in lysis buffer containing 100 mM potassium phosphate pH 7.5, 2 mM MgCl2, 1 mM dithiothreitol and 1×EDTA free Complete protease inhibitor (Roche). The cells were disrupted by glass beads and the supernatant was collected after centrifugation at 4° C. […]
The reaction was incubated at 30° C. for 15 min, and stopped by adding 50 μL of 5 M HCl. […] The ^14C content of the samples was determined using a liquid scintillation counter (PerkinElmer Tri-Carb 2810TR). […]
The radioactive ACC enzyme assay is very sensitive, even pmol/mg/min activities can be detected. […]

[2] = tested on: S. cerevisiae VSK-128 ACS2 deletion strain; assay: AADH in vivo growth assay, ACS2 deletion strain on glucose-based agar plates; type: cell-based
Text: All copies of the ACS2 gene were deleted from the industrial S. cerevisiae VSK-128 strain in order to generate a strain with a defective PDH-bypass that was incapable of growth on glucose-based medium. Expression vectors carrying the 25 different AADH variants were then transformed into this ACS2 deletion strain to evaluate their ability to recover the growth of this strain on glucose.
There was a good correlation between the in vitro AADH enzyme activity assays and the in vivo growth recovery analyses.

[3] = tested on: AADH; assay: AADH in vitro enzyme activity assay from yeast cell lysates; type: biochemical; details: in vitro, expressed in yeast
Experimental: AADH activity was measured as described by Kozak et al. (2014, Metab. Eng. 21:46-59) by monitoring the reduction of NAD^+ at 340 nm at 30° C. The yeast cells for the cell lysates were collected, washed with water, and then resuspended into lysis buffer containing 100 mM Tris-HCl buffer (pH 7.5) and 1×EDTA free protease inhibitor cocktail (Roche). The cells were lysed with glass beads in a Precellys 24 homogenizer at 5500 rpm for 3×40 seconds and kept on ice between rounds. Lysates were centrifuged at 16 000 g for 20 min at 4° C. and supernatants were collected. The total protein concentration was determined using the Bradford method.
The enzyme assay reaction mixture contained 0.1 mM Coenzyme A, 50 mM CHES buffer (pH 9.5), 0.8 mM NAD^+, 0.2 mM DTT and 10 μL of cell extract in a total reaction volume of 200 μL. The reaction was started by adding 10 mM of freshly prepared acetaldehyde solution and reduction of NAD^+ was followed with a Thermo Konelab 20XT analyser.
Five AADH genes were originally chosen (i.e. ADHEpm, ADHEec, EUTec, EUTdz and LIN1129li) and transformed into the CEN.PK lab strain. These AADHs were expressed from a multicopy plasmid where they were under control of the TEF1 promoter.
Twenty additional novel AADH genes were chosen from the genome mining analyses to be evaluated for expression and enzyme activity in yeast.

Row | Substance | relative ranking on ACC1 activity [1] | recovery of the growth deficiency of the ACS2-deletion strain [2] | AADH activity [3]
1 | ACCyl: acetyl-CoA carboxylase of Yarrowia lipolytica CLIB122, GenBank XP_501721.1 | most promising candidate | – | –
2 | ADHEec: adhE type AADH of Escherichia coli K-12 substr. MG1655, GenBank NP_415757.1 | – | capable of recovering the growth deficiency | showed AADH activity

Reference: patent US10704064B2, “Recombinant yeast producing 3-hydroxypropionic acid and method for producing 3-hydroxypropionic acid using the same” (SK Innovation Co., Ltd., priority 2014, dated 2020)
